Test results taken from patent publication US7439040B2, “Protease regulator screening assay” (Novartis Vaccines and Diagnostics, Inc., priority 1996, dated 2008).
Where “and” joins values, the source holds several entries; their conditions need not be identical. Equal entries are not always repeated.

Tests used:
Format in all cases: biochemical
NS3 HCV protease = target: T1, NS3 HCV protease (Hepatitis C virus genotype 1a, UniProt P26664); assay: HCV protease inhibitor screening assay using NS4B/5A cleavage site with co-factor peptide 4A; details: DCIC 1 μM, duplicates
T1 construct: Peptide 4A, a co-factor of the NS3 HCV protease; made in house
T1 sequence (P26664 1027-1657): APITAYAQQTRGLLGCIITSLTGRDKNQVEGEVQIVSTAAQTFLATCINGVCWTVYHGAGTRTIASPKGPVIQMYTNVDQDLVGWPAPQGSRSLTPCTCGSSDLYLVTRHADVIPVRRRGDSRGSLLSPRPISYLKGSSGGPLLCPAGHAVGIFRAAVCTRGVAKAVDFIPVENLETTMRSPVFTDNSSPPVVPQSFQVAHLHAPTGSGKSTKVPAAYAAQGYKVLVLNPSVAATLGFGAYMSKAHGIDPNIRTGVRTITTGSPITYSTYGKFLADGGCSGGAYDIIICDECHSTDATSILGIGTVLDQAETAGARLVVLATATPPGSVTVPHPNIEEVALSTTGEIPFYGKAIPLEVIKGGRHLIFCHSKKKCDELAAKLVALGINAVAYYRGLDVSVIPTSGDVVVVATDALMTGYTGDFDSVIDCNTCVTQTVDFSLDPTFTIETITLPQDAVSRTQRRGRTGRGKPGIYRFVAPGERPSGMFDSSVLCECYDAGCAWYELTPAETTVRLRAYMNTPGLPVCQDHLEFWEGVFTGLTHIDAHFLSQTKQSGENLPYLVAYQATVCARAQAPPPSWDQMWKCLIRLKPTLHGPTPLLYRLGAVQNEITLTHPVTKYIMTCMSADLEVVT
Method: The HCV Protease Inhibitor Screening Assay Using NS4B/5A Cleavage Site
Plate: Human IgG coated on HB COSTAR plate, 200 ng/well
The protease: Ni-13 (F21) diluted 1:300 in the enzyme stock buffer
The protease inhibitor: diluted to 1 mM in the enzyme stock buffer
A substrate polypeptide was prepared having an anchor region (protein A), a linker, two protease target sites of NS4B/5A, another linker, and a FLAG epitope tag. The target polypeptide was expressed in sufficient quantities to conduct the assay.
[…] The plate was washed five times with wash buffer. The inhibitor, if any, was pre-incubated (diluted to 1 uM) with HCV protease, NS4A (0.2 uM) for one hour at room temperature. Peptide 4A, a co-factor of the NS3 HCV protease was added in different concentrations to all wells containing the protease mixture (20X concentration is 4 μM). The above mixture was transferred to the plate coated with IgG-4B/5A complex and incubated overnight at room temperature (about 20° C. −25° C.). The final concentration of the NS4A in each well was 4 μM. The plate was washed five times with wash buffer. Mouse anti-FLAG monoclonal antibody in the amount of 200 μl (1:200d from stock solution) was added to the designated wells and incubated one hour at 37° C. The plate was washed five times with wash buffer. Affinity purified goat anti-mouse (H+L)-HRP (Fab′)2 conjugate (1:5000d) in the amount of 200 μl was added to all the reaction wells except the blank well and incubated one hour at 37° C. The plate was washed five times with wash buffer. Then the plate was developed with OPD substrate for 30 minutes at room temperature. The plate was read with a microtiter plate reader at 490/620 nm.

HCV protease [1] = target: T2, HCV protease (Hepatitis C virus genotype 1a, UniProt P26664); assay: NS5A/5B as substrate to screen HCV protease inhibitor candidates; details: control setup, pro A-NS5 substrate
T2 construct: Peptide 4A, a co-factor of the NS3 HCV protease; made in house
T2 sequence (P26664 1027-1657): as above
Method: The substrate polypeptide, (10 μg/well) in 200 μl was added to a human IgG coated plate and incubated for one hour. The plate was washed five times with wash buffer. The inhibitor, if any, was pre-incubated (diluted to 1 uM) with HCV protease, NS4A (0.2 uM) for one hour at room temperature. Peptide 4A, a co-factor of the NS3 HCV protease was added in different concentrations to all wells containing the protease mixture (20X concentration is 4 μM). […] The final concentration of the NS4A in each well was 4 μM. The plate was washed five times with wash buffer. Mouse anti-FLAG monoclonal antibody in the amount of 200 μl (1:200d from stock solution) was added to the designated wells and incubated one hour at 37° C. The plate was washed five times with wash buffer. Affinity purified goat anti-mouse (H+L)-HRP (Fab′)2 conjugate (1:5000d) in the amount of 200 μl was added to all the reaction wells except the blank well and incubated one hour at 37° C. The plate was washed five times with wash buffer. Then the plate was developed with OPD substrate for 30 minutes at room temperature. The plate was read with a microtiter plate reader at 490/620 nm.
Using NS5A/5B as Substrate to Screen HCV Protease Inhibitor Candidates
A target polypeptide was prepared having an anchor region, a linker region, a protease target site of HCV NS5A/5B, another linker region, and a FLAG epitope tag region. […]

HCV protease [2] = target: T2, HCV protease; assay: HCV protease inhibitor screening assay using NS5A/5B cleavage site (pro A-NS5 substrate, anti-FLAG/HRP OD readout)
Excerpt: The HCV Protease Inhibitor Screening Assay Using NS5A/5B as Cleavage Site Expression Construct and its Encoded Polypeptide
A fragment encoding HCV NS5 peptide protease target site was inserted in frame into the polylinker region of pEZZ18 so that it is connected at the C-terminal region of Protein A. The NS5 peptide protease target site includes the NS5A and NS5B cleavage site, i.e., amino acids 2420 and 2421, 7 amino acids at the N-terminal side of the cleavage site, and 8 amino acids at the C-terminal side of the cleavage site.
Another sequence fragment encoding the FLAG tag was inserted in frame at the C-terminal end of the NS5 peptide protease target site. The sequence fragment encodes three FLAG tags alternately spaced with two 4-Glycine spacers.
Microwell plates containing 96 wells were prepared by coating the wells with IgG. Then the plates were dried. The purified protein NS5 was incubated with the dry plates for 1 hour at 37° C. to allow binding of the Protein A region of the protein to the IgG in the microwells.
Protease was prepared by elution from a nickel column. Various concentrations of HCV protease were prepared. The protease was incubated with and without a known protease inhibitor, DCIC (di-chloro-iso-coumarin). The incubation was for 1 hour at room temperature. Subsequently the protease was transferred to the coated plates. […]
Diluted monoclonal anti-FLAG mouse antibodies (available from Kodak) were added to the HCV protease treated plates and incubated with the plates for 1 hour at 37° C. The plates were subsequently washed and incubated with affinity purified goat anti-mouse-HRP (horse radish peroxidase) conjugates for 1 hour at 37° C. Then the plates were washed, and incubated with a developer such as o-phenylenediamine dihydrochloride (OPD). The optical density (OD) was determined at 492 and 620 nm settings.

HCV protease [3] = target: T2, HCV protease; assay: Short incubation time, NS5A/5B substrate HCV protease inhibitor screen; details: control setup; duplicates; listed as control 4
Method: Using a Short Incubation Time and NS5A/5B as a Substrate to Screen HCV Protease Inhibitors
A target polypeptide was prepared having an anchor region (protein A) molecule, a linker, a protease target site of HCV NS5A/5B, another linker, and a FLAG epitope tag region. The target polypeptide was expressed in sufficient quantities to conduct the assay.
The inhibitor was pre-incubated (diluted to 1 μM) with HCV protease (0.2 μM) for 1 hour at room temperature. A solution of NS5A/5B substrate (20 μg/well) was added to the pre-incubated protease and protease inhibitor mixture, and the total mixture was incubated for 15 minutes. The mixture was transferred to a human IgG coated plate and incubated for 1 hour at 37° C. The plate was washed five times with wash buffer.
Two hundred microliter of mouse anti-FLAG monoclonal antibody (1:200d from stock solution) was added to the designated wells and incubated for 1 hour at 37° C. The plate was washed five times with wash buffer. Affinity purified goat anti-mouse (H+L)-HRPO (Fab′)2 conjugate (1:5000d) in the amount of 200 μl was added to all the reaction wells except the blank well and incubate 1 hour at 37° C. The plate was washed five times with wash buffer. The plate was developed with OPD substrate for 30 minutes at room temperature. The plate was read with a microtiter plate reader at 490/620 nm.

[4] = protease, substrate and inhibitor preincubated overnight, pools 1:100 D

## O=c1oc(Cl)c(Cl)c2ccccc12 [DCIC, di-chloro-iso-coumarin]
NS3 HCV protease; substrate 4B/5A 5 μg/well, 10X peptide 4A
  OD of the reaction product: 1.435 and 1.328
NS3 HCV protease; substrate 4B/5A 5 μg/well, 20X peptide 4A
  OD of the reaction product: 1.374 and 1.373
NS3 HCV protease; substrate 4B/5A 5 μg/well, no peptide 4A
  OD of the reaction product: 1.400 and 1.491
NS3 HCV protease; substrate 4B/5A 10 μg/well, 10X peptide 4A
  OD of the reaction product: 1.729 and 1.715
NS3 HCV protease; substrate 4B/5A 10 μg/well, 20X peptide 4A
  OD of the reaction product: 1.584 and 1.690
NS3 HCV protease; substrate 4B/5A 10 μg/well, no peptide 4A
  OD of the reaction product: 1.769 and 1.686
HCV protease [1]; with DMSO 1 μl
  OD w/ DMSO 1 μl: 2.596
HCV protease [1]; without DMSO
  OD w/o DMSO: 2.915
HCV protease [2]; preincubation of protease, substrate and inhibitor overnight, pro A-NS5 10 μg/ml, protease 1:100 D
  OD: 1.578
HCV protease [2]; preincubation of protease, substrate and inhibitor overnight, pro A-NS5 10 μg/ml, protease 1:200 D
  OD: 1.458
HCV protease [2]; preincubation of protease, substrate and inhibitor overnight, pro A-NS5 10 μg/ml, protease 1:500 D
  OD: 1.083
HCV protease [2]; [4]
  OD, Exp. 1: 1.235
  OD, Exp. 2: 0.768
HCV protease [2]; substrate and protease incubated for 2 hours, pro A-NS5 10 μg/ml, protease 1:100 D
  OD: 1.137
HCV protease [2]; substrate and protease incubated for 2 hours, pro A-NS5 10 μg/ml, protease 1:200 D
  OD: 1.235
HCV protease [2]; substrate and protease incubated for 2 hours, pro A-NS5 10 μg/ml, protease 1:500 D
  OD: 0.503
HCV protease [2]; substrate and protease incubated for 2 hours, proA-NS5 2 μg/ml, protease 1:100 D
  OD: 0.627
HCV protease [2]; substrate and protease incubated for 2 hours, proA-NS5 2 μg/ml, protease 1:200 D
  OD: 0.631
HCV protease [2]; substrate and protease incubated for 2 hours, proA-NS5 2 μg/ml, protease 1:500 D
  OD: 0.545
HCV protease [2]; substrate and protease incubated overnight, pro A-NS5 10 μg/ml, protease 1:100 D
  OD: 0.899
HCV protease [2]; substrate and protease incubated overnight, pro A-NS5 10 μg/ml, protease 1:200 D
  OD: 0.998
HCV protease [2]; substrate and protease incubated overnight, pro A-NS5 10 μg/ml, protease 1:500 D
  OD: 0.887
HCV protease [2]; substrate and protease incubated overnight, proA-NS5 2 μg/ml, protease 1:100 D
  OD: 0.449
HCV protease [2]; substrate and protease incubated overnight, proA-NS5 2 μg/ml, protease 1:200 D
  OD: 0.467
HCV protease [2]; substrate and protease incubated overnight, proA-NS5 2 μg/ml, protease 1:500 D
  OD: 0.328
HCV protease [3]
  OD, 15 minutes preincubation: 1.563 and 1.590
  OD, 1 hour preincubation: 1.991 and 2.152
